{"source": "patent US4483833A", "about": "“Process for selective removal of H2 S from mixtures containing H2 2 with heterocyclic tertiary aminoalkanols” (Exxon Research & Engineering Co., priority 1982, dated 1984)", "key": {"[1]": {"assay": "Boiling point (volatility) of aminoalkanol", "assay_type": "physicochemical", "description": "Also, to insure operational efficiency with minimal losses of the amino compound, the amino compound should have a relatively low volatility. […]\nIt can be seen that in each case the boiling points increase relative to the respective parent compound while the pKa remains constant."}, "pKa of aminoalkanol": {"assay": "pKa of aminoalkanol", "assay_type": "physicochemical", "conditions": "at 20° C."}, "[2]": {"conditions": "pressure not stated; background; cited from earlier work"}, "[3]": {"assay": "15N NMR chemical shift as a means of determining selectivity to H2S removal", "assay_type": "physicochemical", "conditions": "90% by wt. amine in 10% by wt. D2O, 35° C.; liquid ammonia at 25° C. as zero reference", "protocol": "Another means for determining whether an amino compound is selective to H2 S removal is by measuring its 15N nuclear magnetic resonance (NMR) chemical shift. […] D2 O at 35° C. is measured by a spectrometer using liquid (neat) ammonia at 25° C. as a zero reference value. For example, N-(2-hydroxyethoxyethyl)pyrrolidine (HEEP) has a ^15 N NMR chemical shift value of δ+53.2 ppm whereas diethylmonoethanolamine (DEAE), N-methyl-N-tertiarybutylaminoethoxyethanoland methyldiethanolamine (MDEA) have ^15 N NMR chemical shift values of δ+43.7, δ+45.0 and δ+27.4 ppm, respectively."}}, "note": "Where two headings read alike, the source gives them in different places."}
{"molecule": "OCCOCCCN1CCCC1", "values": [{"measurement": "boiling point", "setting": "[1]; at 20 mm", "result": 140, "unit": "°C"}, {"measurement": "pKa", "setting": "pKa of aminoalkanol", "result": 10.20}]}
{"molecule": "CC(O)CN1CCCC1", "note": "(stereo not drawn)", "values": [{"measurement": "boiling point", "setting": "[1]; at 14 mm", "result": 75, "unit": "°C"}, {"measurement": "pKa", "setting": "pKa of aminoalkanol", "result": 10.20}]}
{"molecule": "CC(O)COC(C)CN1CCCC1", "note": "(stereo not drawn)", "values": [{"measurement": "boiling point", "setting": "[1]; at 1 mm", "result": 100, "unit": "°C"}, {"measurement": "pKa", "setting": "pKa of aminoalkanol", "result": 10.20}]}
{"molecule": "CCN(CC)CCO", "note": "[DEAE, diethylmonoethanolamine]", "values": [{"measurement": "boiling point", "setting": "[2]", "result": 161, "unit": "°C"}]}
{"molecule": "CC(CCO)N1CCCC1", "note": "(stereo not drawn) [H2BP, N-(4-hydroxy-2-butyl)pyrrolidine]", "values": [{"measurement": "boiling point", "setting": "[1]; at 7 mm", "result": 98, "unit": "°C"}, {"measurement": "pKa", "setting": "pKa of aminoalkanol", "result": 10.25}]}
{"molecule": "OCCCCN1CCCC1", "note": "[HBP, N-(4-hydroxybutyl) pyrrolidine]", "values": [{"measurement": "boiling point", "setting": "[1]; at 2 mm", "result": 95, "unit": "°C"}, {"measurement": "pKa", "setting": "pKa of aminoalkanol", "result": 10.21}]}
{"molecule": "OCCOCCN1CCCC1", "note": "[HEEP, N-(2-hydroxyethoxyethyl)pyrrolidine]", "values": [{"measurement": "boiling point", "setting": "[1]; at 5 mm", "result": 110, "unit": "°C"}, {"measurement": "15N NMR chemical shift (δ+)", "setting": "[3]", "result": 53.2, "unit": "ppm"}, {"measurement": "pKa", "setting": "pKa of aminoalkanol", "result": 9.95}]}
{"molecule": "OCCN1CCCC1", "note": "[HEP, N-hydroxyethylpyrrolidine]", "values": [{"measurement": "boiling point", "setting": "[1]; at 13 mm", "result": 80, "unit": "°C"}, {"measurement": "pKa", "setting": "pKa of aminoalkanol", "result": 9.95}]}
{"molecule": "OCCCN1CCCC1", "note": "[HPP, N-(3-hydroxypropyl)pyrrolidine]", "values": [{"measurement": "boiling point", "setting": "[1]; at 13 mm", "result": 103, "unit": "°C"}, {"measurement": "pKa", "setting": "pKa of aminoalkanol", "result": 10.21}]}
{"molecule": "OCCCN1CCCCC1", "note": "[HPPi, N-(3-hydroxypropyl)piperidine]", "values": [{"measurement": "boiling point", "setting": "[1]; at 5 mm", "result": 97, "unit": "°C"}, {"measurement": "pKa", "setting": "pKa of aminoalkanol", "result": 10.2}]}
{"molecule": "CN1CCCCC1CCO", "note": "(stereo not drawn) [MHEPi, N-methyl-2-hydroxyethylpiperidine]", "values": [{"measurement": "boiling point", "setting": "[1]; at 760 mm", "result": 233, "unit": "°C"}, {"measurement": "pKa", "setting": "pKa of aminoalkanol", "result": 9.90}]}
{"molecule": "OCCCN1CCCC1", "note": "[drawing 3]", "values": [{"measurement": "boiling point", "setting": "[1]; at 13 mm", "result": 101, "unit": "°C"}, {"measurement": "pKa", "setting": "pKa of aminoalkanol", "result": 10.20}]}
